Assay results published in US10640527B2, “Mesitylene-cored amphiphiles and uses thereof” (Industry-University Cooperation Foundation Hanyang …, priority 2016, dated 2020).
“And” between values parts separate entries of the source, which are not always exact repeats. Identical values can stand only once.

How the values were obtained:
[1] = Critical micelle concentration by fluorophore encapsulation using diphenylhexatriene (DPH); assay type: physicochemical; conditions: aqueous solution
Protocol: A method of measuring a CMC is not particularly limited, and those methods widely known in the related field may be used. For example, a CMC may be measured by a fluorophore encapsulation method using diphenylhexatriene (DPH).
(§1) Specifically, a CMC was measured by a fluorophorescent encapsulation method using diphenylhexatriene (DPH) and an Rh of a micelle formed by each formulation (1.0 wt %) was measured using a dynamic light scattering (DLS) experiment.

[2] = Hydrodynamic radius / size distribution of micelles by dynamic light scattering (DLS); assay type: physicochemical; conditions: 1.0 wt % amphiphile
Protocol: A method of measuring a radius of the micelle is not particularly limited, and those methods widely known in the related field may be used, for example, a dynamic light scattering (DLS) experiment may be used for measurement.
as §1

[3] = target: T1, melibiose permease (MelBSt) (Salmonella typhimurium, UniProt P30878); experiment: MelBSt extraction from membranes and thermal stability, SDS-PAGE and Western blotting; assay type: biochemical; conditions: 1.5 wt %, 90 minutes
T1 construct: made in house; host or cells: DW2 cells (ΔmelB and ΔlacZY), Salmonella typhimurium DW2
T1 sequence (P30878 whole entry): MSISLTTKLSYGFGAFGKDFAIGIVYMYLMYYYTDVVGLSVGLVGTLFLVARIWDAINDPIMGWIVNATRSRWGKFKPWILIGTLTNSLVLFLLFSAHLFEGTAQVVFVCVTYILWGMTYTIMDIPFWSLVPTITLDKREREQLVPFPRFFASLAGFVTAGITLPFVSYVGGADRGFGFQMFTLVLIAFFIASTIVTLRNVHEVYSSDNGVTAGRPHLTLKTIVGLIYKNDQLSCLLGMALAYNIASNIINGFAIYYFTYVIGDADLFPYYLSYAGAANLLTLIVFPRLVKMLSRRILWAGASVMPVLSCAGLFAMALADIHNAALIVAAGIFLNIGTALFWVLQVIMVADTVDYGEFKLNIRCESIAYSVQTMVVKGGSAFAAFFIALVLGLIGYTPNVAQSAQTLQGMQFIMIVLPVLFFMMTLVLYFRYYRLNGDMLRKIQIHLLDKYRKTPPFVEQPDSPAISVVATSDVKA
Protocol: An experiment for measuring the structural stability of Salmonella typhimurium melibiose permease (MelBSt) according to MGAs in an aqueous solution was performed. After MelBSt proteins were extracted from a membrane using MGAs or DDM, the amount and structure of extracted proteins were analyzed by SDS-PAGE and western blotting. The concentration of used amphiphiles was 1.5 wt %, and proteins were extracted at four different temperatures of 0, 45, 55 and 65° C. to evaluate both the protein extraction efficiency and stabilizing ability of a compound. A membrane sample which had not been treated with MGAs or DDM was used as a control group.
Specifically, MelBSt stability solubilized in DDM or MGAs was evaluated according to a method described in 2010 in a research article (P. S. Chae et al., Nat. Methods 2010, 7, 1003-1008.) by the inventors of the present invention. Proteins (MelBSt) were produced using plasmid pK95ΔAHB/WT MelBSt/CH10 encoding the wild-type MelB with a 6-His tag at the C-terminus and Salmonella typhimurium DW2 cells (ΔmelB and ΔlacZY). Cell growth and membrane preparation was performed according to a method described in a research article (Nat. Commun. 2014, 5, 3009) by A. S. Ethayathulla, et al. A protein assay was carried out using a Micro BCA kit (Thermo Scientific, Rockford, Ill.). In order to measure protein solubilization, a membrane sample (final protein concentration was 10 mg/mL) containing MelBSt was incubated with a solubilization buffer (20 mM sodium phosphate, pH 7.5, 200 mM NaCl, 10% glycerol and 20 mM melibiose) and 1.5% (w/v) DDM or MGA (MGA-C10, MGA-C11, MGA-C12, MGA-C13, MGA-C14 or MGA-C15) at four different temperatures of 0, 45, 55 and 65° C. for 90 minutes. After ultracentrifugation at 355,590 g in a Beckman Optima™ MAX Ultracentrifuge using a TLA-100 rotor for 45 min at 4° C., 20 μg of a protein was separated by SDS-16% PAGE and immunoblotted with a Penta-His-HRP antibody (Qiagen, Germantown, Md.). MelBSt was measured by an ImageQuant LAS 4000 Biomolecular Imager (GE Healthcare Life Sciences) using a SuperSignal West Pico chemiluminescent substrate.

[4] = system: leucine transporter (LeuT); experiment: LeuT long-term stability, [3H]-Leu binding by scintillation proximity assay (SPA); assay type: biochemical, Aquifex aeolicus; conditions: after 12 days of incubation at room temperature
Protocol: An experiment for measuring the structural stability of LeuT proteins according to MGAs (MGA-C11, MGA-C12, MGA-C13, MGA-C14 and MGA-C15) was performed. Each amphiphile was used at a concentration of (a) CMC+0.04 wt % or (b) CMC+0.2 wt %, a ligand-binding activity of LeuT was measured by scintillation proximity assay (SPA) using [^3H]-Leucine. The measurement was performed at regular intervals at room temperature during 12 days of incubation.
Specifically, a thermophilic bacteria Aquifex aeolicus-derived wild type LeuT was purified using a previously described method (Nature, G. Deckert et al., 1998, 392, 353-358). To sum up, the LeuT was expressed in E. coli C41 (DE3) cultured in a lysogeny broth medium supplemented with 0.1 mg/ml ampicillin. Expression of proteins was induced by adding isopropyl β-D-thiogalactopyranoside to a final concentration of 0.1 mM.
A cell membrane was separated from a crushed cell (Constant Systems Homogenizers, Kennesaw, Ga.), and solubilized in 1% (w/v) n-dodecyl-β-D-maltopyranoside (DDM; Affymetrix, Santa Clara, Calif.). After solubilization, LeuT was fixed in a Ni^2+-NTA resin (Life Technologies, Denmark), and eluted in 20 mM Tris-HCl (pH 7.5), 199 mM KCl, 1 mM NaCl, 0.05% (w/v) DDM and 300 mM imidazole. Thereafter, purified LeuT (about 1.5 mg/ml) was diluted tenfold with a buffer supplemented with MGA (MGA-C11, MGA-C12, MGA-C13, MGA-C14 or MGA-C15) or DDM to the final concentration of CMC+0.04% (w/v) or CMC+0.2% (w/v) while excluding DDM and imidazole from the above-described buffers. Protein samples were stored at room temperature for 12 days, and protein activity was determined by measuring [^3H]-Leu binding by SPA at a specified time. SPA was carried out using 450 mM NaCl and buffers containing each MGA, and a SPA reaction was performed in the presence of 20 nM [^3H]-Leu and 1.25 mg/ml copper chelate (His-Tag) YSi beads (Perkin Elmer, Denmark). [^3H]-Leu binding was measured using a MicroBeta liquid scintillation counter (Perkin Elmer).

[5] = target: T2, human β2-adrenergic receptor (β2AR) (Homo sapiens, UniProt P07550); experiment: β2AR stability, [3H]-dihydroalprenolol radioligand binding; assay type: biochemical; conditions: after three days of incubation at room temperature, CMC+0.2 wt %
T2 sequence (P07550 whole entry): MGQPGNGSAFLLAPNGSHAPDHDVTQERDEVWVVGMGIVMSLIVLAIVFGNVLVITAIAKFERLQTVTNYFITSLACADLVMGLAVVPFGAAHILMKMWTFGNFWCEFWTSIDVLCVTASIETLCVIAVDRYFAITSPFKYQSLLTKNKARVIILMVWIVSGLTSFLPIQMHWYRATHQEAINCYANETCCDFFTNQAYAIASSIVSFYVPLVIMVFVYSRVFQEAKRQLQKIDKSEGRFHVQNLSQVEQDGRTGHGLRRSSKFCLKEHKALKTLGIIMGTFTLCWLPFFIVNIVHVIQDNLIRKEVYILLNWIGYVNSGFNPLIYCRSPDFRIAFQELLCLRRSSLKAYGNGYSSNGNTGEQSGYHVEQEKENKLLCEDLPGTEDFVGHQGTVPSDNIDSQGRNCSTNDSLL
Protocol: The activity of a receptor (β2AR) purified by DDM or MGAs (MGA-C12, MGA-C13 and MGA-C14) was measured by binding of [^3H]-dihydroalprenolol ([^3H]-DHA).
Specifically, the following method was used in a radioligand binding experiment. β2AR was purified by 0.1% DDM. The DDM-purified β2AR was diluted with a buffer solution containing each amphiphile (DDM or an MGA) such that the final concentration of the amphiphile was CMC+0.2 wt %. β2AR dissolved in each amphiphile was stored at room temperature for three days, and incubated at room temperature for 30 minutes using 10 nM-radioactive [^3H]-dihydroalprenolol (DHA) to measure ligand binding thereof at regular intervals. The mixture was loaded into a G-50 column, and passing liquid was collected using a binding buffer (20 mM HEPES pH 7.5, 100 mM NaCl supplemented with 0.5 mg/ml BSA) and 15 ml of a scintillation fluid was added thereto. Receptor-coupled [^3H]-DHA was measured by a scintillation counter (Beckman). Non-specific binding of [^3H]-DHA was measured by adding 1 μM of alprenolol (Sigma) in the same reaction. Binding of [^3H]-DHA was measured by column graphs.

[6] = target: T2, human β2-adrenergic receptor (β2AR); experiment: Size exclusion chromatography (SEC) of β2AR solubilized in amphiphile; conditions: amphiphile-free running buffer
Protocol: A size exclusion chromatography (SEC) experiment was conducted to determine the β2AR crystallization effect and β2AR stability preservation effect by MGA-C13 or DDM.
Specifically, β2AR purified by 0.1% DDM was mixed with a DDM or MGA-C13 buffer (20 mM HEPES pH 7.5, 100 mM NaCl, 0.2% of each amphiphile) and incubated for 30 minutes. The sample was applied to a Superdex-200 10/300 GL column (GE Healthcare Life Sciences) at a rate of 0.5 ml/min, fluorescence was recorded at 345 nm, and an […] wavelength was 295 nm. A running buffer contained 20 mM HEPES (pH 7.5) and 100 mM NaCl, and contained each amphiphile (DDM or MGA-C13) or not.

With `CCCCCCCCCCCCO[C@@H]1O[C@H](CO)[C@@H](O[C@H]2O[C@H](CO)[C@@H](O)[C@H](O)[C@H]2O)[C@H](O)[C@H]1O` [DDM, n-dodecyl-β-D-maltopyranoside, reference compound] as the molecule, how does the “CMC” value [1] read?
The value was roughly 170 µM.

And the “CMC (wt %)” value [1]?
The value was roughly 0.0087 wt %.

What about the “Rh (nm), hydrodynamic radius of micelle” value [2] of the same molecule?
Its value is 3.4 nm and 3.4 ± 0.02 nm.

What about the “MelBSt protein extraction efficiency” value ([3]; 0° C. and 45° C.) of the same molecule?
Its value is “high protein extraction efficiency”.

And the MelBSt protein extracted ([3]; 55° C. or more)?
The MelBSt protein extracted was “almost no protein was observed”.

What about the “LeuT ligand-binding activity retained, % of initial activity” value [4] of the same molecule?
The value was roughly 40%.

And the “β2AR receptor (ligand binding) activity retained” value [5]?
The value was roughly 15%.

And the “SEC profile of solubilized β2AR” value [6]?
The value was “largely decreased monodispersed peak intensity (˜13 mL) and a new broad aggregate peak (˜10 mL)”.
